From patent US6245917A, “Crystalline sodium phenytoin monohydrate” (Warner-Lambert Company, priority 1999, dated 2001)

How the values were obtained:
[1] = Solid form interconversion under tableting pressure (XRPD); type: physicochemical; conditions: XRPD of crushed tablets
Experimental: (§1) Dissolutions were carried out in a standard Van-Kel dissolution bath. The medium was either water, 90% water/10% ethanol, or 95% water/5% ethanol. For nonintrinsic dissolution experiments, SPM and SPA powders were sieved and fractions that passed through a 75 μm sieve were used. For intrinsic dissolution experiments, tablets were prepared in a standard Woods apparatus by compression of 400 mg of material at 3000 psig for 1 minute.
For intrinsic dissolution experiments, the test material is compressed into a tablet and the tablet (still in the die) is lowered into the dissolution medium. In this way, a consistent surface area, the tablet face, is presented to the medium. […] Therefore, tablets of SPM and SPA were prepared, removed from the die, crushed into powders, and examined by XRPD.

[2] = type: physicochemical
Experimental: Both SPM and SPA were analyzed by x-ray powder diffraction (XRPD), infrared (IR) spectroscopy, solid-state nuclear magnetic resonance (SSNMR) spectroscopy, differential scanning calorimetry (DSC) and thermogravimetric analysis (TGA). The XRPD patterns of SPM and SPA are quite different and distinguishable. While the IR and SSNMR spectra of SPM and SPA are different, the differences are subtle. SPM and SPA behave quite differently on both DSC and TGA thermal analyses. SPA undergoes endothermic transitions at 364° C. and 409° C. that are accompanied by a weight loss of 72%.

[3] = Drying of SPM under low pressure, XRPD of resulting solid; type: physicochemical; conditions: about 1 torr, ambient temperature, 24 hours
Experimental: Any residual dichloromethane should evaporate readily from the solid under ambient conditions. To determine if solvent evaporation could be ensured by drying under low-pressure conditions, a portion of the SPM sample was kept under about 1 torr pressure at ambient temperature for 24 hours.

[4] = Nonintrinsic dissolution in water; type: physicochemical
Experimental: as §1
Each experiment was carried out by placing 900 mL of medium into one of the Van-Kel dissolution vessels and allowing it to equilibrate at 37° C. The test materials were added (powder or tablet) and samples were withdrawn by syringe at the specified times (see Table 4). Each sample was filtered through a 0.2μ nylon syringe filter. Three dissolution experiments were carried out for each lot of suspension.
The rates of dissolution of SPM and SPA were compared. […] These studies were conducted by slurrying sieved (<75 μm) sodium phenytoin powder in pure water and measuring the concentrations in solution at various times by HPLC. Unfortunately, solid crystallized from the solutions withdrawn for analysis as they cooled, rendering the data invalid for determination of dissolution rate. Even so, all of the samples withdrawn contained about 5 mg/mL of sodium phenytoin, including those withdrawn 5 minutes after the slurries were prepared. […] A decrease in the concentration of dissolved sodium phenytoin with time is consistent with the reported reaction of sodium phenytoin with acids, even carbonic acid formed by dissolution of atmospheric carbon dioxide in water, to give relatively water-insoluble phenytoin.
Samples were analyzed by high-performance liquid chromatography (HPLC) on a BAS 480 HPLC system equipped with a UV/VIS detector and a TSP AS 100 autosampler, and controlled with INJECT software. A Phenomenex Hypersil C18 BDS column (5μ particle size, 4.6×150 mm) was used. The mobile phase was prepared by mixing water, methanol, and acetic acid in a 60:40:0.5 volume ratio. Analyses were carried out at a flow rate of 1 mL/minute with the UV/VIS detector set at 254 nm. The injection volume was 5 μL.
A standard solution consisting of 74.8 μg/mL of sodium phenytoin in mobile phase was injected three times before and three times after each series of analyses. Each unknown sample was injected three times without dilution. The peak areas at 254 nm were recorded and averaged for each time point. The amount of sodium phenytoin in solution at each time point was calculated from the line equation of the calibration curve: […]

SMILES: O=C1NC(=O)C(c2ccccc2)(c2ccccc2)N1 [SPM, sodium phenytoin monohydrate]
- solid form interconversion under pressure used to make tablets [1]: no solid form interconversion occurred
- stability and physical properties compared with sodium phenytoin anhydrate [2]: greatly improved stability and physical properties
- form change on drying under low pressure [3]: these conditions caused dehydration
- amount of sodium phenytoin at extended reaction times versus earlier samples ([4]; 24 and 72 hours): appeared to be less than the amount found in the earlier samples
- dissolution rate in water ([4]; nonintrinsic dissolution experiments): high enough that differences could not be determined
- sodium phenytoin in samples withdrawn ([4]; pure water, including 5 minutes after slurries were prepared, data invalid for dissolution rate): about 5 mg/mL
- dissolution in water ([4]; sieved powder (<75 μm), pure water): dissolve rapidly and extensively in water
